From patent publication US20140314790A1, “CASPASE 9 INHIBITION AND BRI2 PEPTIDES FOR TREATING DEMENTIA” (ALBERT EINSTEIN COLLEGE OF MEDICINE OF YESHIVA UNIVERSITY, priority 2011, published 2014)
Values joined by “and” are separate entries in the source; they are usually repeats but may differ in a detail not shown here. Equal entries are not always repeated. Starred links: 1 amine or outer side, 2 acyl side, 3 side chain; linkers in the order of their positions; H or OH if unused. Non-standard residues stand in square brackets, D forms with d. No end group written: not given here. *: point of attachment. E(OMe) = COC(=O)CC[C@H](N[*:1])C(=O)[*:2]; D(OMe) = COC(=O)C[C@H](N[*:1])C(=O)[*:2]; code Z = not defined here; Cbz = O=C(OCc1ccccc1)*; CH2F = FC*

Legend:
β- and α-cleavage of APP = experiment: APP processing in HEK293-APP cells, sAPPβ and sAPPα in media by Western blot; conditions: for inhibition of β-cleavage of APP relative to N3: 5 μM, 8 hrs (FIG. 8B); for inhibition of APP processing: 25 μM (FIG. 8A) or 5 μM (FIG. 8B); for α-processing of APP (sAPPα in media) / β-cleavage of APP (sAPPβ in media): 25 μM, 8 hrs (FIG. 8A)
Protocol: WB of cell lysates detected APP and α-Tubulin. […] The data are shown as % of inhibition of β-secretase activity in samples without inhibitors.
BRI2-derived peptides and APP processing. APP-transfected HEK293 cells were incubated with the indicated peptides for 8 hrs.

[1] = tested on: FDDKI mice and WT littermates; experiment: Novel object recognition (NOR) test after injection in the lateral ventricle; type: in vivo
[2] = tested on: hippocampal slices of FDDKI and WT mice (Schaeffer collateral pathway LTP); experiment: Long-term potentiation (LTP) in hippocampal slices perfused 60 min with test substance; conditions: for reversal of LTP impairment in FDDKI mice: sixty minute perfusion; for reversal of LTP deficit in FDDKI mice: 60 min perfusion
Source text: All data are shown as mean±s.e.m. Statistical tests included two-way ANOVA for repeated measures and t-test when appropriate.

[3] = tested on: primary hippocampal neuron cultures; conditions: cited from earlier work
rat models of stroke = conditions: cited from earlier work
APP = target: T1, APP (Homo sapiens, UniProt P05067); experiment: α-Flag precipitation of Flagged peptides from HeLa/APP cells; type: binding; conditions: for binding to APP (co-precipitation): HeLa/APP cells, 40 μM Flagged peptide, 2 hours
T1 construct: expressed in transfected cells; host or cells: HeLa cells transfected with APP (HeLa-APP)
T1 sequence (P05067 18-770): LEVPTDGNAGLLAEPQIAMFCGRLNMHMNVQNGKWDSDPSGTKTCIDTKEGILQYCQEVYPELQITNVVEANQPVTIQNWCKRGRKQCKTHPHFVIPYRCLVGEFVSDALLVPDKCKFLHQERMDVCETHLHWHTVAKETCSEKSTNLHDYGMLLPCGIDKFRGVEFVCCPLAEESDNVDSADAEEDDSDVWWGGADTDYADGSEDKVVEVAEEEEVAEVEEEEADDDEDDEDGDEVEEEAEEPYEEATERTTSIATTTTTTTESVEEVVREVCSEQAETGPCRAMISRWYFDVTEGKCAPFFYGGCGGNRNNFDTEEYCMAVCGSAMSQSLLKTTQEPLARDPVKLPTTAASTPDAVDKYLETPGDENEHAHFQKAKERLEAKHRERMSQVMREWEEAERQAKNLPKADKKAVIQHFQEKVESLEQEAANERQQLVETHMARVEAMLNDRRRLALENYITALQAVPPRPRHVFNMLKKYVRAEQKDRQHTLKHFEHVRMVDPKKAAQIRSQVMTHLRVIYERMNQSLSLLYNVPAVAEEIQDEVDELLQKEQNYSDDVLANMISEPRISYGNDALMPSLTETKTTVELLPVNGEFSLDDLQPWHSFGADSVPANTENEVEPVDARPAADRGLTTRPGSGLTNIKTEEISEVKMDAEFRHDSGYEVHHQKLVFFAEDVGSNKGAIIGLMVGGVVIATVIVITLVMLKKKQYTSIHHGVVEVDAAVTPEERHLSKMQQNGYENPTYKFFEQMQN
Protocol: (§1) FIG. 8A-8I. 4A BRI2-derived peptide binds APP and inhibits β-cleavage of APP. (A-B) HEK293-APP cells were incubated with the indicated peptides (N1, N2, […] are SEQ ID NOs: 2, 3, 4, 5, 6, 7, 8, and 9, respectively). β- and α-cleavage of APP were quantified by measuring sAPPβ and sAPPα in media by WB. WB of cell lysates detected APP and α-Tubulin. (C-E) WB analysis of lysates (L) or α-Flag IP (IP) from HeLa/APP cells incubated for 2 hours with Flagged peptides. […] (G) Biotinylated cells were cultured as in (C). The reduced and not reduced samples are indicated (+red and −red, respectively). Lysates (L), α-Flag IP eluted with Flag-peptide (E), eluted sample precipitated with streptavidin-beads [both the fraction unbound (U) and bound (B) to streptavidin-beads], were probed for APP in WB. (H) Purified β-secretase was incubated with fluorescent β-secretase substrate for 30 minutes, resulting in β-cleavage that could be detected by fluorescence increase. […] The data are shown as % of inhibition of β-secretase activity in samples without inhibitors. (I) Model of N3-2A/MoBA activity.
Precipitation with FLAG-peptides. To prepare brain cells, mouse brains were washed in PBS and minced in dissociation buffer. After sedimentation and filtration, dissociated cells were cultured in Neurobasal media. Cells incubated with Flagged-peptides were lysed and precipitated with Flag-M2-agarose-beads as described (Matsuda et al, 2005). Bound proteins were eluted with 100 μg/ml of FLAG peptide.
A BRI2-derived peptide binds APP and inhibits β-cleavage of APP. It was tested whether peptides spanning this domain duplicated BRI2's function. […] Next it was examined if N3-2A (SEQ ID NO:5) binds APP. HeLa-APP cells were cultured with or without N3-2A fused to a C-terminal Flag epitope (N3-2A-F). After 2 hrs of incubation, cell lysates were precipitated with α-Flag-agarose-beads and co-precipitated molecules were eluted with a Flag-peptide.

endogenous APP = target: T2, endogenous APP (Mus musculus, UniProt P12023); experiment: α-Flag precipitation of Flagged peptide from cultured brain cells; type: binding
T2 construct: endogenous in cells; host or cells: dissociated mouse brain cells cultured in Neurobasal media
T2 sequence (P12023 18-770): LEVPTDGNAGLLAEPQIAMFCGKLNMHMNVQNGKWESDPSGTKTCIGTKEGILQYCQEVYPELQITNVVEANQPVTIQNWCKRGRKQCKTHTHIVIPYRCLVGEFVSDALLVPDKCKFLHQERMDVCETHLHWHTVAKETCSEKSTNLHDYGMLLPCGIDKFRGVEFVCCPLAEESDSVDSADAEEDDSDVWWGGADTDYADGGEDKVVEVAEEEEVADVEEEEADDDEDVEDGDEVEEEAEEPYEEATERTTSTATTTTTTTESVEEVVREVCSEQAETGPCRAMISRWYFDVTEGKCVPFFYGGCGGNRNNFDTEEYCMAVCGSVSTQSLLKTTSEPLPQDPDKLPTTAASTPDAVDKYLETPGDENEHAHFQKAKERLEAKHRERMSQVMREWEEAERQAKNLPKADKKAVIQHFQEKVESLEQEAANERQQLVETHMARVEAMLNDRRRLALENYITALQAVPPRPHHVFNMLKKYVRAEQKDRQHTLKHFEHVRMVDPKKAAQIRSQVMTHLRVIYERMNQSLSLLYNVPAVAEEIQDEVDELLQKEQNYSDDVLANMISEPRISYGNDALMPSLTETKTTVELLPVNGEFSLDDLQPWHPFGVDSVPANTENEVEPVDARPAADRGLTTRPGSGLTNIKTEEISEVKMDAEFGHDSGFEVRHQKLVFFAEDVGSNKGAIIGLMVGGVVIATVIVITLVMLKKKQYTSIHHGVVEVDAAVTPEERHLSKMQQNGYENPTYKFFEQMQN
Protocol: as §1
Precipitation with FLAG-peptides. To prepare brain cells, mouse brains were washed in PBS and minced in dissociation buffer. After sedimentation and filtration, dissociated cells were cultured in Neurobasal media. […]

purified β-secretase = target: T3, purified β-secretase (Homo sapiens, UniProt P56817); experiment: β-secretase FRET activity assay with purified enzyme; type: biochemical; conditions: fluorescent β-secretase substrate, 30 minutes
T3 construct: purchased Invitrogen
T3 sequence (P56817 46-501): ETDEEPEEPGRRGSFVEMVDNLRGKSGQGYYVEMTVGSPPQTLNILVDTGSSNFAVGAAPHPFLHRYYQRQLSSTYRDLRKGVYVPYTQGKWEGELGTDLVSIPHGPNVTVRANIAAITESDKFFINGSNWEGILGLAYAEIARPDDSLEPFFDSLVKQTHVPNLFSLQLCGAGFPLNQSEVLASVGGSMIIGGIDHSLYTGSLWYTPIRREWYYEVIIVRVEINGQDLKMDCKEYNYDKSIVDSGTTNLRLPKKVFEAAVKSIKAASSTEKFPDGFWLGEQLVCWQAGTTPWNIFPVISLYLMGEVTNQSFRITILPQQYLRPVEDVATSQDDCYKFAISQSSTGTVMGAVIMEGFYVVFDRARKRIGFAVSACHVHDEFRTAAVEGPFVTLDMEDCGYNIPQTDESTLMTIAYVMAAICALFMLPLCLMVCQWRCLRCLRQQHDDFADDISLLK
Protocol: WB of cell lysates detected APP and α-Tubulin. (C-E) WB analysis of lysates (L) or α-Flag IP (IP) from HeLa/APP cells incubated for 2 hours with Flagged peptides. […] (G) Biotinylated cells were cultured as in (C). The reduced and not reduced samples are indicated (+red and −red, respectively). […] The data are shown as % of inhibition of β-secretase activity in samples without inhibitors.

γ-secretase = conditions: two values given, not explained; cited from earlier work
[4] = FDDKI mice, 1 μl of PBS/500 μM in lateral ventricle, 1 hr before training and testing
[5] = FDDKI mice, 1 μl of PBS/100 μM in lateral ventricle

## ADVYYCGLKY (FRAGMENT DIRECTED TO HOMO SAPIENS PROTEIN) [N3-1A]
β- and α-cleavage of APP
  inhibition of β-cleavage of APP relative to N3: stronger inhibitor of APP processing by β-secretase

## Z-L-E(OMe)-H-D(OMe)-FMK.TFA ({code Z}-L[E(OMe)]H[D(OMe)]-CH2F; reading uncertain; also: TFA salt, printed as Z-L-E(OMe)-H-D(OMe)-FMK.TFA) [Z-LEHD-FMK]
[1]; [4]
  rescue of memory deficit of FDDKI mice (NOR): transiently rescue this memory deficit
[2]; FDDKI slices, 2 μM
  reversal of LTP impairment in FDDKI mice: reverse LTP impairment in FDDKI mice
[2]; WT untreated vs. WT treated with Z-LEHD-FMK
  effect on LTP of WT mice: does not alter LTP of WT mice

## Cbz-Val-Ala-Asp(OMe)-CH2F [Z-VAD-FMK]
[2]; FDDKI slices, 10 μM
  reversal of LTP impairment in FDDKI mice: reverse LTP impairment in FDDKI mice

## Pen1-XBIR3: XIAP-BIR3 domain disulfide-linked to cell-penetrating peptide Penetratin1; specific inhibitor of active caspase-9
[1]; FDDKI mice, NOR without treatments after 5 days of rest
  persistence of therapeutic effect post injection: at least 5 days
[1]; FDDKI mice, lateral ventricle, 2 μl of PBS/23 μM Pen1-XBIR3 or 2 μl of PBS/16 μM Pen1-CrmA, 1 h before training and testing
  rescue of memory deficit of FDDKI mice (NOR): rescues this memory deficit
[1]; FDDKI mice, no further treatments
  therapeutic effect in NOR test repeated 5 days later: still significant
[1]; WT mice, 2 μl of PBS/23 μM Pen1-XBIR3 or 2 μl of PBS/16 μM Pen1-CrmA
  memory in WT animals (NOR): Neither Pen1-XBIR3 nor Pen1-CrmA altered memory in WT animals
[3]
  caspase-9 dependent cell death: inhibits caspase-9 dependent cell death
Rat models of stroke; direct parenchymal or intranasal delivery, rat
  therapeutic effect: therapeutically effective
Rat models of stroke; in vivo model of cerebral ischemia
  caspase-9 block after delivery to the CNS: blocks caspase-9
Rat models of stroke; one dose
  functional protection against ischemia post-infarction: 3 weeks

## N3-4A-F: Flagged single amino acid N3 mutant (DDVAYCGLKY-{Flag epitope})
APP
  binding to APP (co-precipitation): did not bind APP
β- and α-cleavage of APP
  inhibition of APP processing: do not inhibit APP processing

## ILNEPSADAP (FRAGMENT DIRECTED TO HUMAN PROTEIN) [N6]
β- and α-cleavage of APP
  inhibition of APP processing: does not inhibit APP processing
[2]; FDDKI slices, 1 μM
  reversal of LTP deficit in FDDKI mice: does not rescue the LTP deficit

## N3-2A-F: N3-2A fused to a C-terminal Flag epitope (DAVYYCGLKY-{Flag epitope})
APP
  binding to APP (co-precipitation): binds mature APP
Endogenous APP
  binding to endogenous APP: binds endogenous APP

## DAVYYCGLKY (FRAGMENT DIRECTED TO A HOMO SAPIENS PROTEIN) [N3-2A]
[1]; [5]
  rescue of memory deficit of FDDKI mice (NOR): transiently rescue this memory deficit
APP; HeLa/APP cells (FIG. 8C, D)
  binding to β-CTF: does not bind β-CTF
APP; untagged peptide added to media containing 40 μM N3-2A-F
  competition for binding to APP: could compete for binding to APP
Purified β-secretase
  inhibition of β-secretase activity: did not inhibit the activity of purified β-secretase
β- and α-cleavage of APP; 5 μM (FIG. 8B)
  α-processing of APP: did not overtly inhibit α-processing of APP
β- and α-cleavage of APP
  inhibition of β-cleavage of APP relative to N3: stronger inhibitor of APP processing by β-secretase
[2]; FDDKI slices, 10 nM
  reversal of LTP deficit in FDDKI mice: reversed the LTP deficit of FDDKI samples
[2]; FDDKI slices, 1 μM
  reversal of LTP deficit in FDDKI mice: reversed the LTP deficit of FDDKI samples
[2]; WT slices, 1 μM
  effect on LTP of WT mice: does not alter LTP of WT mice

## DDVYYCGLKY (FRAGMENT DIRECTED TO A HOMO SAPIENS PROTEIN) [N3]
β- and α-cleavage of APP
  α-processing of APP (sAPPα in media): moderately decreased α-processing of APP
  β-cleavage of APP (sAPPβ in media): strongly reduced β-cleavage

## DDVYYCGLKYIKDD (FRAGMENT DIRECTED TO HUMAN PROTEIN) [N8]
β- and α-cleavage of APP
  α-processing of APP (sAPPα in media): moderately decreased α-processing of APP
  β-cleavage of APP (sAPPβ in media): strongly reduced β-cleavage

## C[C@H](NC(=O)Cc1cc(F)cc(F)c1)C(=O)N[C@H]1N=C(c2ccccc2)c2ccccc2N(C)C1=O [compound-E]
[1]; FDDKI mice, 1 μl of PBS/300 nM compound-E
  rescue of memory deficit of FDDKI mice (NOR): does not
[1]; FDDKI mice, ten-fold higher dose, 1 μl of PBS/3 μM compound-E
  rescue of memory deficit of FDDKI mice (NOR): did not correct the memory deficit of Danish mice
[1]; WT mice, 1 μl of PBS/300 nM compound-E
  performance of WT animals (NOR): nor altered performance of WT animals
[1]; WT mice, ten-fold higher dose, 1 μl of PBS/3 μM compound-E
  memory of WT mice (NOR): showed a trend, though not statistically significant, toward memory impairment
γ-secretase
  IC50: 300 pM and 240 pM
[2]; FDDKI slices, 1 nM
  rescue of LTP defect in FDDKI samples: does not rescue the LTP defect in FDDKI samples
[2]; WT slices, compound-E 1 nM
  effect on LTP of WT mice: do not alter LTP of WT mice

## Z-D(OMe)-E(OMe)-V-D(OMe)-FMK [Z-DEVD-FMK]
[1]; [4]
  rescue of memory deficit of FDDKI mice (NOR): does not
[1]; WT mice, 1 μl of PBS/500 μM in lateral ventricle
  performance of WT animals (NOR): nor altered performance of WT animals

## β-secretase-inhibitor IV
[1]; [5]
  rescue of memory deficit of FDDKI mice (NOR): transiently rescue this memory deficit
[2]; FDDKI slices, 50 nM
  rescue of LTP impairment in FDDKI mice: rescues LTP impairment in FDDKI mice
[2]; WT slices, β-secretase inhibitor IV 50 nM
  effect on LTP of WT mice: do not alter LTP of WT mice
